pIC50: −log10 of the molar value. Read-outs that look alike come from different tables or passages of the source.
Legend:
SW620 PERK = SW620 PERK assay; type: cell-based
[1] = molecular target: recombinant human KRAS wild type (SOS1-mediated nucleotide exchange) (Homo sapiens (Human), UniProt P01116); test: KRAS biochemical assay, BODIPY-GDP exchange TR-FRET (WT-GDP HTRF)
Description: [Worded in the source for another variant; this variant is reported under the same test.] KRAS Biochemical Assay—BODIPY-GDP Exchange TR-FRET.
Biochemical compound potencies were assessed by evaluating inhibition of SOS1-mediated nucleotide exchange in KRAS G12D. The SOS1-promoted exchange of fluorescently-labeled GDP (BOPIDY-GDP) was monitored by time-resolved fluorescence resonance energy transfer (TR-FRET). Compounds solubilized in DMSO were dispensed as concentration series into 384-well white assay plates. […] The reaction was initiated with the addition of 5 μL of 3 nM recombinant human SOS1 and 300 nM BODIPY-GDP in assay buffer. After a 60-minute incubation, the fluorescence was measured with excitation at 337 nm and emission at 490 and 520 nm. The TR-FRET ratio was determined as the fluorescence at 520 nm divided by the fluorescence at 490 nm multiplied by 10,000. […] The normalized TR-FRET results were plotted against compound concentration, and the data fit to a 4-parameter Hill equation to determine the IC50 values.

HPAC cells = test: HPAC 3D proliferation assay (CellTiter-Glo); type: cell-based; conditions: 3D culture, 7 days, read-out: HPAC CTG IC50
Description: (§1) SW620 and HPAC 3D proliferation assays.
(§2) Compound potencies were assessed in proliferation assays conducted with SW620 and HPAC cell lines grown in 3D cultures. Cells were seeded into 96- or 384-well ultra-low attachment plates at 3000 or 1000 cells/well, respectively, in culture medium (RPMI-1640, 10% FBS, 2 mM L-glutamine). The plated cells were centrifuged briefly, allowed to rest for 30 minutes under ambient conditions, and cultured overnight at 37° C./5% CO2 to initiate the formation of spheroids. Compound dilutions were prepared across a range of concentrations in DMSO and added to the appropriate wells of the assay plates with a 333-fold dilution into the culture medium. The plates were further incubated for 7 days. The quantity of viable cells was assessed using CellTiter-Glo 3D Cell Viability Assay (Promega). The detection reagent penetrates the spheroids and lyses the cells. The released ATP that was detected with luciferase and a luciferase substrate to generate a luminescent readout. […] The data points were fit to a 4-parameter logistic equation to determine IC50 values.

SW620 cells = test: SW620 3D proliferation assay (CellTiter-Glo); type: cell-based; conditions: SW620, 3D culture, 7 days, read-out: SW620 CTG IC50
Description: as §1, §2

[2] = molecular target: recombinant human mutant KRas G12V (SOS1-mediated nucleotide exchange) (Homo sapiens (Human), UniProt P01116, G12V); test: KRAS biochemical assay, BODIPY-GDP exchange TR-FRET (G12V-GDP HTRF)
H1975 cells = test: H1975 CTG proliferation assay; type: cell-based
[3] = Homo sapiens, SW-620, SW620, PERK
[4] = Homo sapiens, NCI-H1975, H1975, CTG

recombinant human mutant KRas G12V (SOS1-mediated nucleotide exchange), sequence (P01116-2 other isoform, or with tags, fused parts or gaps G12V): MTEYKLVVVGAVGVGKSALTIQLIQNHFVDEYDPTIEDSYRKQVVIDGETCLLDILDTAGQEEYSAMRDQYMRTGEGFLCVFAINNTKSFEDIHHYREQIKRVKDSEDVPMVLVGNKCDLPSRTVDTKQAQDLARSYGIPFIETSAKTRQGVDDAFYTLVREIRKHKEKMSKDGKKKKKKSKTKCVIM
recombinant human KRAS wild type (SOS1-mediated nucleotide exchange), sequence (P01116-2 other isoform, or with tags, fused parts or gaps): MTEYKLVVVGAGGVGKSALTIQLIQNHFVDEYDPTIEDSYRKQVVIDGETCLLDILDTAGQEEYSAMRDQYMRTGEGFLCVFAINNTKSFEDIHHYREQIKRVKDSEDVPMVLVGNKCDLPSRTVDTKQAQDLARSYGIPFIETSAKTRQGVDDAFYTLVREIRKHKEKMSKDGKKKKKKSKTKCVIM

Row | SMILES | pIC50 (SW620 PERK; [3]) | pIC50 [1] | pIC50 (HPAC cells; Homo sapiens, 168 h) | pIC50 (SW620 cells; Homo sapiens, SW-620, 168 h) | pIC50 [2] | pIC50 (H1975 cells; [4]) | pIC50 (SW620 PERK; SW620, PERK) | pIC50 (HPAC cells) | pIC50 (SW620 cells) | pIC50 (H1975 cells; H1975, CTG)
1 | C#Cc1cccc2cc(N)cc(-c3nc4c5c(nc(OC[C@@]67CCCN6C[C@H](F)C7)nc5c3F)N([C@H](C)c3nccnc3N)CCO4)c12 [Example 29, 3-((R)-1-(5-(3-Amino-8-ethynyinaphthalen-1-yl)-4-fluoro-2-(((2R,7aS)-2-fluorotetrahydro-1H-pyrrolizin-7a(5H)-yl)methoxy)-8,9-dihydro-10H-7-oxa-1,3,6,10-tetraazacyclohepta[de]naphthalen-10-yl)ethyl)pyrazin-2-amine] | 9.18 | 9.82 | 8.35 | 8.79 | 10.05 | 8.59 |  |  |  | 
2 | C[C@H](c1cccnc1N)N1CCOc2nc(-c3c(C(F)(F)F)ccc(N)c3Cl)c(F)c3nc(OC[C@@]45CCCN4C[C@H](F)C5)nc1c23 (atropisomer, axis not shown; (aS)) [Example 622a, 3-((R)-1-((R)-5-(3-amino-2-chloro-6-(trifluoromethyl)phenyl)-4-fluoro-2-(((2R,7aS)-2-fluorotetrahydro-1H-pyrrolizin-7a(5H)-yl)methoxy)-8,9-dihydro-10H-7-oxa-1,3,6,10-tetraazacyclohepta[de]naphthalen-10-yl)ethyl)pyridin-2-amine] | 8.49 | 9.24 | 7.40 | 8.29 | 9.72 | 6.12 |  |  |  | 
3 | Cc1c(F)c(N)nc(-c2nc3c4c(nc(OC[C@@]56CCCN5C[C@]5(CC5(F)F)C6)nc4c2F)N([C@H](C)c2nccnc2N)CCO3)c1C(F)(F)F [Example 632] | 8.22 | 9.42 | 7.08 | 7.81 | 10.05 | 7.08 |  |  |  | 
4 | Cc1c(F)c(N)nc(-c2nc3c4c(nc(OC[C@@]56CCCN5C[C@H](F)C6)nc4c2Cl)N([C@H](C)c2cccnc2N)CCO3)c1C(F)(F)F [Example 620, 6-(10-((R)-1-(2-aminopyridin-3-yl)ethyl)-4-chloro-2-(((2R,7aS)-2-fluorotetrahydro-1H-pyrrolizin-7a(5H)-yl)methoxy)-9,10-dihydro-8H-7-oxa-1,3,6,10-tetraazacyclohepta[de]naphthalen-5-yl)-3-fluoro-4-methyl-5-(trifluoromethyl)pyridin-2-amine] | 8.37 | 9.13 | 7.05 | 7.72 | 9.62 | 6.88 |  |  |  | 
5 | Cc1cc(N)nc(-c2nc3c4c(nc(OC[C@@]56CCCN5C[C@H](F)C6)nc4c2Cl)N([C@H](C)c2cccnc2N)CCO3)c1C(F)(F)F [Example 633, 6-(10-((R)-1-(2-aminopyridin-3-yl)ethyl)-4-chloro-2-(((2R,7aS)-2-fluorotetrahydro-1H-pyrrolizin-7a(5H)-yl)methoxy)-9,10-dihydro-8H-7-oxa-1,3,6,10-tetraazacyclohepta[de]naphthalen-5-yl)-4-methyl-5-(trifluoromethyl)pyridin-2-amine] | 7.64 | 9.38 | 7.11 | 7.70 | 9.70 | 7.32 |  |  |  | 
6 | Cc1c(F)c(N)nc(-c2nc3c4c(nc(OC[C@@]56CCCN5C[C@H](F)C6)nc4c2F)N([C@H](C)c2cncnc2N)CCO3)c1C(F)(F)F [Example 613, 5-((R)-1-(5-(6-amino-5-fluoro-4-methyl-3-(trifluoromethyl)pyridin-2-yl)-4-fluoro-2-(((2R,7aS)-2-fluorotetrahydro-1H-pyrrolizin-7a(5H)-yl)methoxy)-8,9-dihydro-10H-7-oxa-1,3,6,10-tetraazacyclohepta[de]naphthalen-10-yl)ethyl)pyrimidin-4-amine] | 6.84 | 8.84 | 5.82 | 6.54 | 9.62 | 6.80 |  |  |  | 
7 | Cc1nc(N)nc(-c2nc3c4c(nc(OC[C@@]56CCCN5C[C@H](F)C6)nc4c2F)N([C@H](C)c2cccnc2N)CCO3)c1C(F)(F)F [Example 628, 4-(10-((R)-1-(2-aminopyridin-3-yl)ethyl)-4-fluoro-2-(((2R,7aS)-2-fluorotetrahydro-1H-pyrrolizin-7a(5H)-yl)methoxy)-9,10-dihydro-8H-7-oxa-1,3,6,10-tetraazacyclohepta[de]naphthalen-5-yl)-6-methyl-5-(trifluoromethyl)pyrimidin-2-amine] | 7.85 | 9.08 | 6.48 | 7.84 | 9.48 | 6.33 |  |  |  | 
8 | Cc1nc(N)cc(-c2nc3c4c(nc(OC[C@@H]5CCCN5C)nc4c2F)N([C@H](C)c2cccnc2N)CCO3)c1C(F)(F)F [Example 627, 4-(10-((R)-1-(2-aminopyridin-3-yl)ethyl)-4-fluoro-2-(((S)-1-methylpyrrolidin-2-yl)methoxy)-9,10-dihydro-8H-7-oxa-1,3,6,10-tetraazacyclohepta[de]naphthalen-5-yl)-6-methyl-5-(trifluoromethyl)pyridin-2-amine] | 7.28 | 8.33 | 5.87 | 6.71 | 9.36 | 6.07 |  |  |  | 
9 | C[C@H](c1cccnc1N)N1CCOc2nc(-c3cc(N)ncc3C(F)(F)F)c(F)c3nc(OC[C@@]45CCCN4C[C@H](F)C5)nc1c23 [Example 608, 4-(10-((R)-1-(2-aminopyridin-3-yl)ethyl)-4-fluoro-2-(((2R,7aS)-2-fluorotetrahydro-1H-pyrrolizin-7a(5H)-yl)methoxy)-9,10-dihydro-8H-7-oxa-1,3,6,10-tetraazacyclohepta[de]naphthalen-5-yl)-5-(trifluoromethyl)pyridin-2-amine] | 7.35 | 8.47 | 6.04 | 6.61 | 9.28 | 6.61 |  |  |  | 
10 | C[C@H](c1cccnc1N)N1CCOc2nc(-c3c(C(F)(F)F)ccc(N)c3Cl)c(F)c3nc(OC[C@@]45CCCN4C[C@H](F)C5)nc1c23 (single isomer, unassigned) [Example 622b] | 7.53 | 8.26 | 6.91 | 7.64 | 8.64 | 5.58 |  |  |  | 
11 | C#Cc1cccc2cncc(-c3nc4c5c(nc(OC[C@@]67CCCN6C[C@H](F)C7)nc5c3F)N([C@H](C)c3cccnc3N)CCO4)c12 [Example 18, 3-((R)-1-(5-(5-ethynylisoquinolin-4-yl)-4-fluoro-2-(((2R,7aS)-2-fluorotetrahydro-1H-pyrrolizin-7a(5H)-yl)methoxy)-8,9-dihydro-10H-7-oxa-1,3,6,10-tetraazacyclohepta[de]naphthalen-10-yl)ethyl)pyridin-2-amine] | 8.26 | 9.48 | 7.25 | 7.89 | 9.62 | 8.26 |  |  |  | 
12 | Cc1c(F)c(N)nc(-c2nc3c4c(nc(OC[C@@]56CCCN5C[C@]5(CC5(F)F)C6)nc4c2F)N([C@H](C)c2cccnc2N)CCO3)c1C(F)(F)F [Example 614] | 8.62 | 9.80 | 7.94 | 8.76 | 9.92 | 5.71 |  |  |  | 
13 | Cc1c(F)c(N)nc(-c2nc3c4c(nc(OC[C@@]56CCCN5C[C@H](F)C6)nc4c2F)N([C@H](C)c2nccnc2N)CCO3)c1C(F)(F)F [Example 630, 3-((R)-1-(5-(6-amino-5-fluoro-4-methyl-3-(trifluoromethyl)pyridin-2-yl)-4-fluoro-2-(((2R,7aS)-2-fluorotetrahydro-1H-pyrrolizin-7a(5H)-yl)methoxy)-8,9-dihydro-10H-7-oxa-1,3,6,10-tetraazacyclohepta[de]naphthalen-10-yl)ethyl)pyrazin-2-amine] | 7.67 | 8.70 | 6.68 | 7.54 | 9.49 | 6.87 |  |  |  | 
14 | Cc1cc(N)c(Cl)c(-c2nc3c4c(nc(OC[C@@]56CCCN5C[C@H](F)C6)nc4c2F)N([C@H](C)c2cccnc2N)CCO3)c1C(F)(F)F (single isomer, unassigned) [Example 21a] |  | 8.53 |  |  | 8.72 |  | 7.48 | 6.99 | 8.16 | 6.74
